Series [1] has as its target T1, Acetylcholinesterase (Homo sapiens, UniProt P22303). The series can be described thus: Inhibition of recombinant human AChE using acetylthiocholine iodide as substrate pretreated for 5 mins followed by substrate addition measured for 5 mins by Ellman's method. For orientation: DTNB colorimetry detects thiols as they appear.
Series [2] deals with T2, Cholinesterase (Homo sapiens, UniProt P06276). Description: Inhibition of recombinant human serum BuChE using butyrylthiocholine iodide as substrate pretreated for 5 mins followed by substrate addition measured for 5 mins by Ellman's method.
Series [3] can be described thus: in vitro. Particulars: PAMPA.
Description: Permeability of the compound after 2.5 hrs by PAMPA
Series [4] can be described thus: in vitro. Particulars: PAMPA. The source holds these as a separate data set. Background: In PAMPA a lipid-coated filter parts donor from acceptor wells.
Description: Permeability of the compound at 500 uM after 8 hrs by PAMPA
Series [5] is described as follows: in vitro. The following applies: PAMPA. The source holds these as a separate data set.
Description: Permeability of the compound by PAMPA
In another series the test system is SH-SY5Y. The series can be described thus: Cytotoxicity against human SH-SY5Y cells assessed as cell death up to […] after 24 hrs by LDH release assay. It is filed as cell-based.
Series [6] concerns Rattus norvegicus. Description: In vivo inhibition of BuChE in Wistar rat at 80 mg/kg, ip measured after 60 mins by Ellman's method relative to control. In kind it is functional. The following applies: 1 h.
For series [7], the system named is Rattus norvegicus. The series can be described thus: In vivo inhibition of BuChE in Wistar rat administered ip measured after 60 mins by Ellman's method. In kind it is functional, organism-based.
Series [8] has as its target T2, Cholinesterase. The series can be described thus: Mixed-type inhibition of recombinant human serum BuChE at 0.5 to 2 nM using varying levels of butyrylthiocholine iodide as substrate pretreated for 5 mins followed by substrate addition measured for 5 mins by Lineweaver-Burk plot analysis.
Series [9] has as its target T1, Acetylcholinesterase. The series can be described thus: Competitive inhibition of recombinant human AChE at 1 to 10 uM using varying levels of acetylthiocholine iodide as substrate pretreated for 5 mins followed by substrate addition measured for 5 mins by Lineweaver-Burk plot analysis.
The target in series [10] is Cholinesterase (Equus caballus) (UniProt P81908). The series can be described thus: Binding affinity to equine serum BuChE at 20-fold excess by STD-NMR menthod.
In series [11] the target is Acetylcholinesterase (Electrophorus electricus) (UniProt O42275). Description: Binding affinity to electric eel AChE at 20-fold excess by STD-NMR menthod.
Series [12] concerns the target Cholinesterase (Equus caballus) (UniProt P81908). The series can be described thus: Binding affinity to equine serum BuChE at 176 uM by trNOESY NMR method.
Series [13] concerns the target Acetylcholinesterase (Electrophorus electricus) (UniProt O42275). Description: Binding affinity to electric eel AChE at 260 uM by trNOESY NMR method.

Structures are written as SMILES. Active and inactive are the calls of the source. No cut-off for these calls is given here.

T1 sequence (P22303 whole entry): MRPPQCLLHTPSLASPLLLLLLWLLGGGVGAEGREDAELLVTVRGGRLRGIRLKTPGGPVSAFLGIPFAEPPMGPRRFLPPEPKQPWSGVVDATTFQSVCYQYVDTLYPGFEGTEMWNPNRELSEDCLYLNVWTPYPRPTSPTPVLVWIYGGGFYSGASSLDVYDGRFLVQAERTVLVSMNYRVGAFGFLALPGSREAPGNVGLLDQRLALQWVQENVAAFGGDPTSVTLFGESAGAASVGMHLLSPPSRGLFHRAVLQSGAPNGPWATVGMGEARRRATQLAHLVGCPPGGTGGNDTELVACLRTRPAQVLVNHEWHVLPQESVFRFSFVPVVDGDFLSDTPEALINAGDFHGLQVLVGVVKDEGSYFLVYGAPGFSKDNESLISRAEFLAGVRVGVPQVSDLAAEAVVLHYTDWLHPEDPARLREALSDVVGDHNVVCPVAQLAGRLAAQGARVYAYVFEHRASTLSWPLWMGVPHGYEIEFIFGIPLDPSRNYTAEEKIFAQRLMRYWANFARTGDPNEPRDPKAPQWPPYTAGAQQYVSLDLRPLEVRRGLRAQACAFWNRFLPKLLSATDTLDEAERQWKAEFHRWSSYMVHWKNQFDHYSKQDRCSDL
T2 sequence (P06276 whole entry): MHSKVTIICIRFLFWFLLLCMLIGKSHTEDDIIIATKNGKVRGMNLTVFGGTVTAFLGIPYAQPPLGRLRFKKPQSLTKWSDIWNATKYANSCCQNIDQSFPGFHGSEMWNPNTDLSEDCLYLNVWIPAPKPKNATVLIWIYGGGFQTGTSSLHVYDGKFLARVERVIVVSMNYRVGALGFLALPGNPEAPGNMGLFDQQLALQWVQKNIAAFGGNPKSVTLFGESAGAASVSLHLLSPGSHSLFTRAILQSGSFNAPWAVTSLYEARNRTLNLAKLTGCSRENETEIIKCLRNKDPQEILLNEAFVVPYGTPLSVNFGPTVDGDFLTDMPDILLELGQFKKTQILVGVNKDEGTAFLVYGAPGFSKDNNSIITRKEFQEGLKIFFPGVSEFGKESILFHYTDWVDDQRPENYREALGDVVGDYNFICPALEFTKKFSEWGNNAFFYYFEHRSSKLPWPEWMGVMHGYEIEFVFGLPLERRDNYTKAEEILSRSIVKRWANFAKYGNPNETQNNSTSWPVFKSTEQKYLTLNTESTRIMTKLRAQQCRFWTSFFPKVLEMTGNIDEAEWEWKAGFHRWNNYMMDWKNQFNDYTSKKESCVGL
Sequence of Cholinesterase (Equus caballus) (P81908 whole entry): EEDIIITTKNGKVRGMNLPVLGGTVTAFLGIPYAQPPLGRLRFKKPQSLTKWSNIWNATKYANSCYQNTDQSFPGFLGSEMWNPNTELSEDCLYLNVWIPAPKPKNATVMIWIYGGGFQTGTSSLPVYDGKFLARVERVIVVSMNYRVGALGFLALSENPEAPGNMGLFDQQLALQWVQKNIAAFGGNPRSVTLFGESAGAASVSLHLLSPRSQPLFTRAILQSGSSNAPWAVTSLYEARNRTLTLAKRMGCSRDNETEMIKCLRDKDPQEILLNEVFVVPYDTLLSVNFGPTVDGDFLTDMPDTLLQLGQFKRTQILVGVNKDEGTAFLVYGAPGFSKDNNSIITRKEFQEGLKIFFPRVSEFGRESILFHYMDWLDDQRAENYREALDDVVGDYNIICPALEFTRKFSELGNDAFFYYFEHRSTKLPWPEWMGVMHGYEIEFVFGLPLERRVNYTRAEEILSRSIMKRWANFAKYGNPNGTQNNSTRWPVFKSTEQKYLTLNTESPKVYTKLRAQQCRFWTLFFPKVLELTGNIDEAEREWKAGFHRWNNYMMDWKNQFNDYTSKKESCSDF
Sequence of Acetylcholinesterase (Electrophorus electricus) (O42275 24-633 limits assumed): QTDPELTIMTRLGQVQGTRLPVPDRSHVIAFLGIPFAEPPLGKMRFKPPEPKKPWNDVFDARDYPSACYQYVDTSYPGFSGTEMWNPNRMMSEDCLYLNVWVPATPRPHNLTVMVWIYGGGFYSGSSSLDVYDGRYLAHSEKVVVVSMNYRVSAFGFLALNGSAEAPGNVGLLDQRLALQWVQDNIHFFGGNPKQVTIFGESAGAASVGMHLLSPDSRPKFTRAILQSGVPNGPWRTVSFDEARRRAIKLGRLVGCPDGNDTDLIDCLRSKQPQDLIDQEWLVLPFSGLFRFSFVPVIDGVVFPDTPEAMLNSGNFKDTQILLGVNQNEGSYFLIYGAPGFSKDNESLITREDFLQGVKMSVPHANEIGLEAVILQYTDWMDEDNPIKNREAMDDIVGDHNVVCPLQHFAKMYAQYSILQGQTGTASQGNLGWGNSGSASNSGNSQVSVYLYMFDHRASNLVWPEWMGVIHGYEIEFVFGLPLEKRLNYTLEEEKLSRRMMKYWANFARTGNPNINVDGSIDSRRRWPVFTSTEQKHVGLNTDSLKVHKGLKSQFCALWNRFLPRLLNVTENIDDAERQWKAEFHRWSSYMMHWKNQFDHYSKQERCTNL

For the molecule `O=C(CCc1c[nH]c2ccccc12)NCCC1CCN(Cc2ccccc2)CC1`, the IC50 (as a rule, the concentration that gives 50% inhibition) at Acetylcholinesterase [1] worked out at 5950 nM; on Cholinesterase [2], 0.89 nM. Besides, the Papp (in general, the rate of passage across a membrane or cell layer, normalised by area and donor concentration) at 2.5 h in the series “in vitro [3]” stood at 2.2 ×10⁻⁶ cm/s. This molecule gave a Papp at 8 h, 500 µM in “in vitro [4]” of 0.7 ×10⁻⁶ cm/s.

For `Cn1cc(CC(=O)NCCC2CCN(Cc3ccccc3)CC2)c2ccccc21`, the IC50 at Acetylcholinesterase [1] stood at 1420 nM; at Cholinesterase [2], 0.25 nM. The Papp at 2.5 h in the series “in vitro [3]” was determined as 7.3 ×10⁻⁶ cm/s. The molecule also came in with a Papp at 8 h, 500 µM in the series “in vitro [4]” of 5.5 ×10⁻⁶ cm/s.

In “in vitro [3]”, `CN(C)CCCN1c2ccccc2Sc2ccccc21` [PROMAZINE] returned a Papp at 2.5 h of 11.8 ×10⁻⁶ cm/s.

`Nc1nc2c(ncn2COCCO)c(=O)[nH]1` [ACYCLOVIR] gave an apparent permeability coefficient (Papp) at 8 h, 500 µM in “in vitro [4]” of 0.1 ×10⁻⁶ cm/s.

With `NC(=O)N1c2ccccc2C=Cc2ccccc21` [CARBAMAZEPINE], in “in vitro [5]”, the Papp is 11.3 ×10⁻⁶ cm/s. Also, the Papp at 8 h, 500 µM in the series “in vitro [4]” worked out at 11.2 ×10⁻⁶ cm/s.

In turn, `O=c1ccc2ccccc2o1` [COUMARIN] had an apparent permeability (Papp) in “in vitro [5]” of 22.1 ×10⁻⁶ cm/s. The Papp at 8 h, 500 µM in “in vitro [4]” is 19.3 ×10⁻⁶ cm/s.

`CN1C(C(=O)Nc2ccccn2)=C(O)c2ccccc2S1(=O)=O` [PIROXICAM] yielded an apparent permeability (Papp) at 2.5 h in “in vitro [3]” of 0.1 ×10⁻⁶ cm/s.

Regarding `Cc1[nH]c2ccccc2c1CC(=O)NCCC1CCN(Cc2ccccc2)CC1`, the 50% inhibitory concentration (IC50) on Acetylcholinesterase [1] came out at 7270 nM; on Cholinesterase [2] it was 1.09 nM. In addition, the Papp at 2.5 h in “in vitro [3]” amounted to 2.3 ×10⁻⁶ cm/s. Further, in “in vitro [4]”, the apparent permeability coefficient (Papp) at 8 h, 500 µM stood at 0.7 ×10⁻⁶ cm/s.

With `Cn1c(=O)c2c(ncn2C)n(C)c1=O` [CAFFEINE], the apparent permeability coefficient (Papp) at 2.5 h in the series “in vitro [3]” worked out at 0.1 ×10⁻⁶ cm/s.

In “in vitro [3]”, `CNCCCN1c2ccccc2CCc2ccccc21` [DESIPRAMINE] displayed a Papp at 2.5 h of 11.4 ×10⁻⁶ cm/s.

Consider `O=C(Cc1c[nH]c2ccc(Br)cc12)NCCC1CCN(Cc2ccccc2)CC1`, for which the IC50 amounted to 1410 nM on Acetylcholinesterase [1] and 0.68 nM at Cholinesterase [2]. Also, the Activity result with SH-SY5Y is given as “Non-Toxic”. In the series with Rattus norvegicus [6], testing at 80 mg/kg gave an inhibition in vivo of 15%. Besides, the inhibition result in the series with Rattus norvegicus [7] was “Dose-dependent effect”. In the series “in vitro [3]”, this molecule yielded an apparent permeability coefficient (Papp) at 2.5 h of 5.8 ×10⁻⁶ cm/s. This molecule yielded a Papp at 8 h, 500 µM in the series “in vitro [4]” of 0.5 ×10⁻⁶ cm/s.

As to `Cn1cc(C(=O)NCCC2CCN(Cc3ccccc3)CC2)c2ccccc21`, the IC50 on Acetylcholinesterase [1] came out at 6110 nM; at Cholinesterase [2], 670 nM. Also, in the series “in vitro [3]”, the Papp at 2.5 h was 4.8 ×10⁻⁶ cm/s. The Papp at 8 h, 500 µM in the series “in vitro [4]” amounted to 4.6 ×10⁻⁶ cm/s.

As to `O=C(CCCc1c[nH]c2ccccc12)NCCC1CCN(Cc2ccccc2)CC1`, the 50% inhibitory concentration (IC50) at Acetylcholinesterase [1] was 1260 nM; at Cholinesterase [2] it was 12 nM. In the series “in vitro [3]”, this molecule displayed a Papp at 2.5 h of 3.9 ×10⁻⁶ cm/s. The Papp at 8 h, 500 µM in “in vitro [4]” was 0.1 ×10⁻⁶ cm/s.

As for `O=C(Cc1c[nH]c2ccccc12)NCCC1CCN(Cc2ccccc2)CC1`, the IC50 at Acetylcholinesterase [1] was determined as 3550 nM; on Cholinesterase [2], 0.87 nM. In addition, the inhibition result at Cholinesterase [8] and at Acetylcholinesterase [9] was “Active” throughout. The result in series [10], in series [11], in series [12] and in series [13] was Active. This molecule also showed a Papp at 2.5 h in the series “in vitro [3]” of 2.4 ×10⁻⁶ cm/s. This molecule also returned a Papp at 8 h, 500 µM in the series “in vitro [4]” of 0.1 ×10⁻⁶ cm/s.

On to `CO/N=C(\C(=O)N[C@@H]1C(=O)N2C(C(=O)O)=C(CSc3nc(=O)c(=O)[nH]n3C)CS[C@H]12)c1csc(N)n1` [CEFTRIAXONE], for which, in “in vitro [4]”, the Papp at 8 h, 500 µM turned out to be 0.1 ×10⁻⁶ cm/s.
